The text below walks through data of article PMC4457528, “Identification of Novel Small Molecule Inhibitors of Oncogenic RET Kinase” (PLoS ONE, 2015).

What all share (experiment): KinomeScan kinase panel, single concentration 10 µM
Common to all, as to assay type: binding

Test [1] has as its target T1, KinomeScan kinase panel (Homo sapiens, UniProt Q9HCP0).
T1 construct: purchased DiscoveRx (KinomeScan)
The note with it: CSNK1G1, 10 µM.

Test [2] concerns the target T2, KinomeScan kinase panel (Homo sapiens, UniProt Q15303).
T2 construct: purchased DiscoveRx (KinomeScan)
The note with it: ERBB4, 10 µM; read-out: score (%).

The target in test [3] is T3, KinomeScan kinase panel (Homo sapiens, UniProt Q08345).
T3 construct: purchased DiscoveRx (KinomeScan)
The note with it: DDR1, 10 µM; read-out: score (%).

For test [4], the target named is T4, KinomeScan kinase panel (Homo sapiens, UniProt Q04759).
T4 construct: purchased DiscoveRx (KinomeScan)
The note with it: 10 µM, read-out: score (%).

For test [5], the target named is T5, KinomeScan kinase panel (Homo sapiens, UniProt P57078).
T5 construct: purchased DiscoveRx (KinomeScan)
T5 sequence (P57078 1-832): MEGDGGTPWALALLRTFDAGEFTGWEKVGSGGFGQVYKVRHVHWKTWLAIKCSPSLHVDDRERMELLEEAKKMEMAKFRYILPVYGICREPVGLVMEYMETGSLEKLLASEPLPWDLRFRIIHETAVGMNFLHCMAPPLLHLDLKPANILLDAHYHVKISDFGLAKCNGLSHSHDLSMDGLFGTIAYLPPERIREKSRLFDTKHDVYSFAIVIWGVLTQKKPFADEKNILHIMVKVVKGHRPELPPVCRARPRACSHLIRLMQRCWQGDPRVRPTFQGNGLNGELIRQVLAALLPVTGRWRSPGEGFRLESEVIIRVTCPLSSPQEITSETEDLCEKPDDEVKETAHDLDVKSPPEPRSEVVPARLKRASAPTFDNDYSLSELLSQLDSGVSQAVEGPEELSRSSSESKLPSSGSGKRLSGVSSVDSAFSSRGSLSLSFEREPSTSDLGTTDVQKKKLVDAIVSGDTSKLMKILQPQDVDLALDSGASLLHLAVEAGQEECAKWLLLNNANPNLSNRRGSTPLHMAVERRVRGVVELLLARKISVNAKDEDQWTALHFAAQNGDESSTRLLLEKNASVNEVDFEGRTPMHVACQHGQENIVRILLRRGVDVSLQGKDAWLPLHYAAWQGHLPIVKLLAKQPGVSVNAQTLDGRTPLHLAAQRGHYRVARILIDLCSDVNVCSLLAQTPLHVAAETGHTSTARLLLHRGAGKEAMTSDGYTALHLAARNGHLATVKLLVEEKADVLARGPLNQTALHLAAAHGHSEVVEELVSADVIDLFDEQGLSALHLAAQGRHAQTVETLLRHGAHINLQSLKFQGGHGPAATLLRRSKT
Conditions: read-out: score (%).

The target of test [6] is T6, KinomeScan kinase panel (Homo sapiens, UniProt O95835).
T6 construct: purchased DiscoveRx (KinomeScan)
T6 sequence (O95835 1-1130): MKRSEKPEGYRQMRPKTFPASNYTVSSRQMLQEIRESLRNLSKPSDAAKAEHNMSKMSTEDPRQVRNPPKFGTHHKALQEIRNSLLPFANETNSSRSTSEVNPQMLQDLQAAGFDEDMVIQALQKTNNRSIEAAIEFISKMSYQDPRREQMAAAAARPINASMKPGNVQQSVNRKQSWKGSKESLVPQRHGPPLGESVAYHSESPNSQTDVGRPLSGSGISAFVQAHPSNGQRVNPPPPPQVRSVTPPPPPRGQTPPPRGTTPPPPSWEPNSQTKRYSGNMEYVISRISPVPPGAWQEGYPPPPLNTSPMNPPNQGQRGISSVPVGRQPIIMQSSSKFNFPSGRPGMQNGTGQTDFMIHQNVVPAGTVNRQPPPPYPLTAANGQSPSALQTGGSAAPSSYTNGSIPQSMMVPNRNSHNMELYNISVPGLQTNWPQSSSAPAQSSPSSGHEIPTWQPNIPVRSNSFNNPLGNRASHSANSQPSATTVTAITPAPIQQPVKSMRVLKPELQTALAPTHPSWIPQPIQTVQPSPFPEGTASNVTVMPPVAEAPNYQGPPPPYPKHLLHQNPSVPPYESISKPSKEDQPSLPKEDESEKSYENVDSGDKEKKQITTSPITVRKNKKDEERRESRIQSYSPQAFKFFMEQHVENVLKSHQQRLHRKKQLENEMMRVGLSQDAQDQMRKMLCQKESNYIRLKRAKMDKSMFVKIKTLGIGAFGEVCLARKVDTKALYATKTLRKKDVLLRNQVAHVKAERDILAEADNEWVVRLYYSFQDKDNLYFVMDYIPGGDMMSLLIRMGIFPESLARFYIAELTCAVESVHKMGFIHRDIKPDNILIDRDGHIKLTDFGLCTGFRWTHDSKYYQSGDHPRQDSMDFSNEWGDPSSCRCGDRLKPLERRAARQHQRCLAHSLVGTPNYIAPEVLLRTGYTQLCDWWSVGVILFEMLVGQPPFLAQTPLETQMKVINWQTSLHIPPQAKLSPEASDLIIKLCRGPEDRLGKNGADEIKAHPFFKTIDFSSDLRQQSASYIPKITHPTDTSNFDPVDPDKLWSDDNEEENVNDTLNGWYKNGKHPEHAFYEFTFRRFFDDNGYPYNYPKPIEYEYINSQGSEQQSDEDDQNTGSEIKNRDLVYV
The note with it: LATS1, 10 µM; read-out: score (%).

Test [7] has as its target T7, KinomeScan kinase panel (Homo sapiens, UniProt P35590).
T7 construct: purchased DiscoveRx (KinomeScan)
The note with it: read-out: score (%).

Test [8] addresses T8, KinomeScan kinase panel (Homo sapiens, UniProt Q9P289).
T8 construct: purchased DiscoveRx (KinomeScan)
Conditions: MST4, 10 µM; read-out: score (%).

Test [9] concerns the target T9, KinomeScan kinase panel (Homo sapiens, UniProt P27037).
T9 construct: purchased DiscoveRx (KinomeScan)
The note with it: ACVR2A, 10 µM; read-out: score (%).

Where two headings read alike, the source gives them in different places.

T4 sequence (Q04759 whole entry): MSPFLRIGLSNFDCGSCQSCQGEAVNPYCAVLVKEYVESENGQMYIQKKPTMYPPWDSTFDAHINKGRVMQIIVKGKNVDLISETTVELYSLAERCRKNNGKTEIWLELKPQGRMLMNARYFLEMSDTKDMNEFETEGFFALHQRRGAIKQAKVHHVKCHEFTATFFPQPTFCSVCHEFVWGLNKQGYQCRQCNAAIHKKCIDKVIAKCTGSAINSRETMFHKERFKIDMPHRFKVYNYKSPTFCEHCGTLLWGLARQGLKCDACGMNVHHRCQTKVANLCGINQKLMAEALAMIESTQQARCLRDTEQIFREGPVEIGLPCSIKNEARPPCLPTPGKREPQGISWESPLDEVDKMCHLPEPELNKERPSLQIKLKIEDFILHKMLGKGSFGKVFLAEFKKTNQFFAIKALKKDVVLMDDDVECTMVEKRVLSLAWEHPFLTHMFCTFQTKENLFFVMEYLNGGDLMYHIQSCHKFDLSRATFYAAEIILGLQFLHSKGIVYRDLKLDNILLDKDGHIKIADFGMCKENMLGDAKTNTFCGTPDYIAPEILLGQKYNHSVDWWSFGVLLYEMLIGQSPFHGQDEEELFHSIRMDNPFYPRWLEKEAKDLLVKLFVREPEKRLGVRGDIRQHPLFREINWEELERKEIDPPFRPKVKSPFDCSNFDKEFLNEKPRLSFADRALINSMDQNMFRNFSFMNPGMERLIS
T7 sequence (P35590 22-1138): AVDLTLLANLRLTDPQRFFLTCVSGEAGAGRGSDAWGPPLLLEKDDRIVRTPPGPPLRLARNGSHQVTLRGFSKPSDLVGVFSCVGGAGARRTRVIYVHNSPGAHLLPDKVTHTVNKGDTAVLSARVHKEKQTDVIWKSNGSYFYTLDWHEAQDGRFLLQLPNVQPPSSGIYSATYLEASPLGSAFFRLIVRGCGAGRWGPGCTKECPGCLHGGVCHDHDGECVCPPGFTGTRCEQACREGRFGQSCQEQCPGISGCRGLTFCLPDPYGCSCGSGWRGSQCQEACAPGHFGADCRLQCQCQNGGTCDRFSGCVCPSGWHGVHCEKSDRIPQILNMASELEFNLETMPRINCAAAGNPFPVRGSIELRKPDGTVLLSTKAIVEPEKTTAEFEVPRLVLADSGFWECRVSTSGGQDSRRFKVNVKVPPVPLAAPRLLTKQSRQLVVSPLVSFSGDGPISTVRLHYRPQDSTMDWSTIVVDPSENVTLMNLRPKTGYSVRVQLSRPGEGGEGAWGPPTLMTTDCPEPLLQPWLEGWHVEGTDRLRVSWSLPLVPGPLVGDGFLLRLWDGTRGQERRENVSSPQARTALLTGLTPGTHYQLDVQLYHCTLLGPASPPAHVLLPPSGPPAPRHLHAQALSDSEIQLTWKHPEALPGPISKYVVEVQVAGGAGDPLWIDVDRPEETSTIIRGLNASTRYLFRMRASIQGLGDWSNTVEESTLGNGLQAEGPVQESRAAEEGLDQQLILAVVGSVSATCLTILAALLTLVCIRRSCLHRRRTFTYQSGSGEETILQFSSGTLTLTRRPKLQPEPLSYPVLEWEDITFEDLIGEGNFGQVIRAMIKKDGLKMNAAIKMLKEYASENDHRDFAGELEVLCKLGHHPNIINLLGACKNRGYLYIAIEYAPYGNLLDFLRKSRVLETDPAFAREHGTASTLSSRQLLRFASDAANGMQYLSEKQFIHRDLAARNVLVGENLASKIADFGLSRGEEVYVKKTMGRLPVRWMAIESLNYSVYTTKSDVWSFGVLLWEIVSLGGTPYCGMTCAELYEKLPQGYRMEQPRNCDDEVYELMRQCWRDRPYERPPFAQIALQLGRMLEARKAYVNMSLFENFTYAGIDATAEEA
T1 sequence (Q9HCP0 whole entry): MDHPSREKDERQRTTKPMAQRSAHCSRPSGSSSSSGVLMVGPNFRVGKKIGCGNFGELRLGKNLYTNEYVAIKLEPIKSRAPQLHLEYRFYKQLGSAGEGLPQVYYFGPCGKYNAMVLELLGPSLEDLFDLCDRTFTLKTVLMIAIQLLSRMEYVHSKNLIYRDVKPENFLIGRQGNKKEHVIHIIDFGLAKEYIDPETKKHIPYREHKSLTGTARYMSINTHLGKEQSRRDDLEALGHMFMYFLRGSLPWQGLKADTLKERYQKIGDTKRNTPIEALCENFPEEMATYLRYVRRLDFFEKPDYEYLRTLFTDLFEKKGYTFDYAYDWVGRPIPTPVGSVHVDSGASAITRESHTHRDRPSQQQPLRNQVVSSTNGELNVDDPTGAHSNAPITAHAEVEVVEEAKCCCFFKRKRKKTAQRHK
T2 sequence (Q15303 26-1308): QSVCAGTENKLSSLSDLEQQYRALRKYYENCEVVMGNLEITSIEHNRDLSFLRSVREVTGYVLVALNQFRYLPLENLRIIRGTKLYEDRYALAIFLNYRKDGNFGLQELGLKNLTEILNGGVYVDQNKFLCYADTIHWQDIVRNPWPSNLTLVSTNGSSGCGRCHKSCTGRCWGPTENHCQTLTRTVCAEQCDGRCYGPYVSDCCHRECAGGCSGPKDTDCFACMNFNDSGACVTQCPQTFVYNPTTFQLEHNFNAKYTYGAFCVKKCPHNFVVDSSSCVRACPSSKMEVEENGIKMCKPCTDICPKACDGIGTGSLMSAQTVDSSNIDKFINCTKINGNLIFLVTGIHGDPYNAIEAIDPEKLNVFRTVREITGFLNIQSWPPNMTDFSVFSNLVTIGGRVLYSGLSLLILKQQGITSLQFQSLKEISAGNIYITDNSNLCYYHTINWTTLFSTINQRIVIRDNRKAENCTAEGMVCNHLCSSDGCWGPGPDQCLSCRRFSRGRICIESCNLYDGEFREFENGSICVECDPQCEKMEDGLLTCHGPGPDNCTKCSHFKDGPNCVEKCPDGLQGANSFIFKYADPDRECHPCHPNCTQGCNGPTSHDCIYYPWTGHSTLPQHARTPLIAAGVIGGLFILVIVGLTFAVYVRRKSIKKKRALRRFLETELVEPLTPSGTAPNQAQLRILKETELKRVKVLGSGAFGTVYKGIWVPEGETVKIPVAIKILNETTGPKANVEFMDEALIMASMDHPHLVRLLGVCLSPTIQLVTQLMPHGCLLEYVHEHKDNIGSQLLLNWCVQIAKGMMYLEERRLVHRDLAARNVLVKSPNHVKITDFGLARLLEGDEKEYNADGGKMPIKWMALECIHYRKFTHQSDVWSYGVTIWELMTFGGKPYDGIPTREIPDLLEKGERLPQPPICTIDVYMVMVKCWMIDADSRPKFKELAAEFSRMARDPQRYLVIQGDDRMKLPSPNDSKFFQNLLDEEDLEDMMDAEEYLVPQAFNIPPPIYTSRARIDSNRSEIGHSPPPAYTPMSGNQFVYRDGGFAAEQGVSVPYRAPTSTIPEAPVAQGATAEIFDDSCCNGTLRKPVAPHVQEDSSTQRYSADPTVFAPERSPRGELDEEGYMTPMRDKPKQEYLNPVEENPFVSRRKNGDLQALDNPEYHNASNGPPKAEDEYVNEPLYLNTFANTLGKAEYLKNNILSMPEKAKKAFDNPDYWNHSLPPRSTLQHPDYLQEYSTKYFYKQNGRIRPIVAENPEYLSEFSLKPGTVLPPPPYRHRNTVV
T3 sequence (Q08345 19-913): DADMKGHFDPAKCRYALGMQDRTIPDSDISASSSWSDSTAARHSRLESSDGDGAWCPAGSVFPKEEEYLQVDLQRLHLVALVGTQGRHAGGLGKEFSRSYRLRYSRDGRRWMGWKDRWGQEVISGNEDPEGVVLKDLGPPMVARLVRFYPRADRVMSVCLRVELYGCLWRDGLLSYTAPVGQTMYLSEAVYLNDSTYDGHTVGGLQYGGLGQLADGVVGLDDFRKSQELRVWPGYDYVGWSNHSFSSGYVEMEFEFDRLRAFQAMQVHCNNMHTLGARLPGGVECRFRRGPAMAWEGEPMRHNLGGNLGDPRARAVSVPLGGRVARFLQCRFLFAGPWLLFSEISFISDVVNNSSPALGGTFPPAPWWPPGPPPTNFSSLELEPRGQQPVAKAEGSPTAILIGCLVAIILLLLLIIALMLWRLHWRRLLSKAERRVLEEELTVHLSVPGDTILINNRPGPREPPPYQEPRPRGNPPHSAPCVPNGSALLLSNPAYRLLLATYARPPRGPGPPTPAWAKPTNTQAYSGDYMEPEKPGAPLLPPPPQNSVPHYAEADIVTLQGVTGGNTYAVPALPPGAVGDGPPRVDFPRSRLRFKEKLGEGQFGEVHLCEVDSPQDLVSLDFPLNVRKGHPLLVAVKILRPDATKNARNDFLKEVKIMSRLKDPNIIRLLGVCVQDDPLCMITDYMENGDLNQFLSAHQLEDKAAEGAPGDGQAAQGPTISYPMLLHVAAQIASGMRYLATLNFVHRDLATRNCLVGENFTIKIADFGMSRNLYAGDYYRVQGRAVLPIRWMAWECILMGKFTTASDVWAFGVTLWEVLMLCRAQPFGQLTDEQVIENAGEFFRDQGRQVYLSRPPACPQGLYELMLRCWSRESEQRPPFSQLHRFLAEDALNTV
T8 sequence (Q9P289 whole entry): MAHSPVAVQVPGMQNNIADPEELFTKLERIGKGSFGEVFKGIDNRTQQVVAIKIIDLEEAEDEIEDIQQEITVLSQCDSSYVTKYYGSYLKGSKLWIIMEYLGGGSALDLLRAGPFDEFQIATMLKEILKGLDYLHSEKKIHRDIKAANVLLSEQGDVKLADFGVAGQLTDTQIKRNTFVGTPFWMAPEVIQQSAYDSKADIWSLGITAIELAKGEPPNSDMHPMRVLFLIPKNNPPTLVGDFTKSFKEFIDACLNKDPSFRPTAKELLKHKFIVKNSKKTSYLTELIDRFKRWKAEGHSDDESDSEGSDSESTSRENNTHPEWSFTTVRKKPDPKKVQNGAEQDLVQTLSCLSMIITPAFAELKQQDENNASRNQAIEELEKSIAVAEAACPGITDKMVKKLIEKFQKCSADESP

Consider `CCN1CCN(Cc2ccc(NC(=O)c3ccc(C)c(NC(=O)c4cncc(-c5cccs5)c4)c3)cc2C(F)(F)F)CC1` [ALW-II-41-27], for which, at KinomeScan kinase panel [1], the “score (%)” value was “nb (Hits values higher than 30% were considered negative (no binding: nb))”. Moreover, the remaining binding at 10 µM at KinomeScan kinase panel [2] was 1.3%; on KinomeScan kinase panel [3], 0.15%; on KinomeScan kinase panel [4] (PRKCQ), 22%; at KinomeScan kinase panel [5] (RIPK4, 10 µM), more than 30%; on KinomeScan kinase panel [6] it was more than 30%; on KinomeScan kinase panel [7] (kinase TIE1, 10 µM), 1.4%. The remaining binding at 10 µM at KinomeScan kinase panel [8] is 12%; on KinomeScan kinase panel [9] it was more than 30%.
In the case of `CCN1CCN(Cc2ccc(NC(=O)c3ccc(C)c(/C=C/c4cnc5[nH]ccc5c4Cl)c3)cc2C(F)(F)F)CC1` [HG-6-63-01, (E)-3-(2-(4-chloro-1H-pyrrolo[2,3-b]pyridin-5-yl)vinyl)-N-(4-((4-ethylpiperazin-1-yl)methyl)-3-(trifluoromethyl)phenyl)-4-methylbenzamide], the “score (%)” value at KinomeScan kinase panel [1] is on record as “nb (Hits values higher than 30% were considered negative (no binding: nb))”. Further, the remaining binding at 10 µM is 0.7% at KinomeScan kinase panel [2]; 0.1% at KinomeScan kinase panel [3]; more than 30% at KinomeScan kinase panel [4] (PRKCQ); more than 30% at KinomeScan kinase panel [5] (RIPK4, 10 µM); more than 30% on KinomeScan kinase panel [6]; 1.2% at KinomeScan kinase panel [7] (TIE1, 10 µM). The remaining binding at 10 µM on KinomeScan kinase panel [8] was 32%; on KinomeScan kinase panel [9], more than 30%.
Regarding `CCN1CCN(Cc2ccc(NC(=O)c3ccc(C)c(C#Cc4cccnc4)c3)cc2C(F)(F)F)CC1` [XMD15-44], the “score (%)” value at KinomeScan kinase panel [1] is reported as “nb (Hits values higher than 30% were considered negative (no binding: nb))”. The remaining binding at 10 µM turned out to be 1.8% at KinomeScan kinase panel [2]; 0.05% at KinomeScan kinase panel [3]; 55% on KinomeScan kinase panel [4] (kinase PRKCQ); 48% on KinomeScan kinase panel [5] (kinase RIPK4, 10 µM); 20% at KinomeScan kinase panel [6]; 1.6% on KinomeScan kinase panel [7] (kinase TIE1, 10 µM). In addition, the remaining binding at 10 µM is 21% on KinomeScan kinase panel [8] and more than 30% on KinomeScan kinase panel [9].
